# Literature values as cited in US8853275B2, “Concurrent therapy regime/regimen for the treatment of acne related diseases” (Galderma Research & Development, priority 2008, dated 2014).
# Conditions: when combined with BPO; unlike tretinoin
smiles,measurement,value
"COc1ccc(-c2ccc3cc(C(=O)O)ccc3c2)cc1C12CC3CC(CC(C3)C1)C2 [Adapalene, 6-[3-(1-adamantyl)-4-methoxyphenyl]-2-naphtoïc acid]",Stability in the presence of light,stable in the presence of light
